Patent publication US8278090B1, “Heterotrophic cultivation of hydrocarbon-producing microalgae” (Solazyme, Inc., priority 2008, dated 2012)
Where “and” joins values, the source holds several entries; their conditions need not be identical. Identical values can stand only once.

What was measured:
Type in all cases: cell-based
[1] = test system: Botryococcus braunii UTEX 2441; assay: Complex nitrogen sources on heterotrophic growth with glucose; conditions: UTEX 2441, 1% glucose + 10 mM Urea, dark, 4 weeks
Protocol: (§1) The following experiment was done with UTEX 572, UTEX 2441, and N-836 in 20 ml of BG11 plus:
(§2) 1% glucose+2 g/L hydrolyzed casein

[2] = test system: Botryococcus braunii UTEX 572; assay: as above; conditions: dark, 4 weeks
Protocol: as §1, §2

[3] = test system: Botryococcus braunii N-836; assay: Different fixed carbon sources on heterotrophic growth, visual score; parameters: key to heterotrophic growth score, 0.1% / heterotrophic growth score, 0.5% / heterotrophic growth score, 1%: Growth was scored with +'s by visual examination of the cultures; ++: Growth was scored with +'s by visual examination of the cultures; +++: Growth was scored with +'s by visual examination of the cultures; ++++: Growth was scored with +'s by visual examination of the cultures; +++++: Growth was scored with +'s by visual examination of the cultures; conditions: for heterotrophic growth score, 0.1%: N-836, 0.1% carbon source in 1 ml BG11, dark; for heterotrophic growth score, 0.1% / heterotrophic growth score, 0.5% / heterotrophic growth score, 1%: 4 weeks; for heterotrophic growth score, 0.5%: N-836, 0.5% carbon source in 1 ml BG11, dark; for heterotrophic growth score, 1%: N-836, 1% carbon source in 1 ml BG11, dark; for heterotrophic growth on carbon source, in words: N-836, dark
Protocol: (§3) All carbon sources were tested at three different concentrations; 0.1%, 0.5% and 1%. Cultures were grown in 24 well plates for 4 weeks in the dark in 1 ml BG11 plus fixed carbon. Control cultures were grown in BG-11 media under phototrophic conditions without a fixed carbon source. Growth was scored with +'s by visual examination of the cultures (see Table 7). UTEX 572 grew best in glucose, however there was also growth on mannose, galactose and fructose. UTEX 2441 preferred mannose in the dark but there was some growth in galactose, fructose and glycerol.

[4] = test system: Botryococcus braunii UTEX 2441; assay: as above; parameters: key to heterotrophic growth score, 0.1% / heterotrophic growth score, 0.5% / heterotrophic growth score, 1%: Growth was scored with +'s by visual examination of the cultures; ++: Growth was scored with +'s by visual examination of the cultures; +++: Growth was scored with +'s by visual examination of the cultures; ++++: Growth was scored with +'s by visual examination of the cultures; +++++: Growth was scored with +'s by visual examination of the cultures; conditions: for heterotrophic growth score, 0.1%: UTEX 2441, 0.1% carbon source in 1 ml BG11, dark; for heterotrophic growth score, 0.1% / heterotrophic growth score, 0.5% / heterotrophic growth score, 1%: 4 weeks; for heterotrophic growth score, 0.5%: UTEX 2441, 0.5% carbon source in 1 ml BG11, dark; for heterotrophic growth score, 1%: UTEX 2441, 1% carbon source in 1 ml BG11, dark; for heterotrophic growth on carbon source, in words: UTEX 2441, dark
Protocol: as §3

[5] = test system: Botryococcus braunii UTEX 572; assay: as above; parameters: key to heterotrophic growth score, 0.1% / heterotrophic growth score, 0.5% / heterotrophic growth score, 1%: Growth was scored with +'s by visual examination of the cultures; ++: Growth was scored with +'s by visual examination of the cultures; +++: Growth was scored with +'s by visual examination of the cultures; ++++: Growth was scored with +'s by visual examination of the cultures; +++++: Growth was scored with +'s by visual examination of the cultures; conditions: for heterotrophic growth score, 0.1%: UTEX 572, 0.1% carbon source in 1 ml BG11, dark; for heterotrophic growth score, 0.1% / heterotrophic growth score, 0.5% / heterotrophic growth score, 1%: 4 weeks; for heterotrophic growth score, 0.5%: UTEX 572, 0.5% carbon source in 1 ml BG11, dark; for heterotrophic growth score, 1%: UTEX 572, 1% carbon source in 1 ml BG11, dark; for heterotrophic growth on carbon source, in words: UTEX 572, dark
Protocol: as §3

[6] = test system: Botryococcus braunii UTEX 2441; assay: Mixotrophic growth with fixed carbon source in BG11 media in light; conditions: for DCW / DCW mg/15 ml.: three weeks
Protocol: (§4) Modified BG-11 (17.65 mM NaNO3, 0.23 mM K2PO4, 0.3 mM MgSO4.7H2O, 0.25 mM CaCl2.2H2O, 0.189 mM Na2CO3, 0.03 mM citric acid monohydrate, 0.023 mM ferric ammonium citrate, 0.046 mM H3BO3, 9.15 μM MnCl2.4H2O, 0.77 μM ZnSO4.7H2O, 0.32 μM CuSO4.5H2O, 0.21 μM CoCl2.6H2O, 1.62 μM NaMoO4.2H2O, 2.69 μM Na2EDTA, 9 mg/l Tricine, 1.99 μM Thiamine-HCl, 0.006 μM Cyanocobalamine, 0.044 μM Calcium Pantothenate, 0.29 μM p-aminobenzoic acid, soil water). […] Dry cell weight (DCW) were measured after three weeks for the glycerol samples.

[7] = test system: Botryococcus braunii UTEX 572; assay: as above; conditions: for DCW / DCW mg/15 ml.: three weeks
Protocol: as §4

[8] = UTEX 572, 1% glucose + 10 mM Urea
[9] = UTEX 2441, 0.75% glycerol in BG11, light
[10] = UTEX 2441, 1% glycerol in BG11, light
[11] = UTEX 2441, 1.5% glycerol in BG11, light
[12] = UTEX 572, 0.75% glycerol in BG11, light
[13] = UTEX 572, 1% glycerol in BG11, light
[14] = UTEX 572, 1.5% glycerol in BG11, light

Row | Structure (SMILES) | heterotrophic growth score, 0.1% [3] | heterotrophic growth score, 0.5% [3] | heterotrophic growth score, 1% [3] | heterotrophic growth score, 0.1% [4] | heterotrophic growth score, 0.5% [4] | heterotrophic growth score, 1% [4] | heterotrophic growth score, 0.1% [5] | heterotrophic growth score, 0.5% [5] | heterotrophic growth score, 1% [5] | heterotrophic growth on carbon source, in words [3] | heterotrophic growth on carbon source, in words [4] | heterotrophic growth on carbon source, in words [5] | further results
1 | NC(N)=O [Urea, urea] | – | – | – | – | – | – | – | – | – | – | – | – | DCW [1]: 0.10 g/L and 0.067 g/L; DCW mg/3 m1. [1]: 0.3 mg/3 m1 and 0.2 mg/3 m1; increased growth over glucose only culture ([2]; UTEX 572, 10 mM urea + 1% glucose): 76%; DCW [2, 8]: 0.467 g/L; DCW mg/3 m1. [2, 8]: 1.4 mg/3 m1
2 | CC(=O)[O-].[Na+] [acetate, sodium acetate] | + | + | + | ++ | ++ | ++ | + | + | + | – | – | – | –
3 | O=C[C@@H](O)[C@H](O)[C@H](O)CO [arabinose] | + | + | + | ++ | ++ | ++ | + | + | + | – | – | – | –
4 | O=C(CO)[C@@H](O)[C@H](O)[C@H](O)CO [fructose] | + | + | ++ | ++ | +++ | +++ | ++ | ++ | ++ | heterotrophic growth | some growth | growth | –
5 | O=C[C@H](O)[C@@H](O)[C@@H](O)[C@H](O)CO [galactose] | ++ | ++ | ++ | ++ | +++ | ++ | ++ | +++ | +++ | heterotrophic growth | some growth | growth | –
6 | OCC(O)CO [glycerol] | + | + | + | ++ | +++ | +++ | + | + | + | – | some growth | – | DCW [6, 9]: 0.273 g/L and 0.286 g/L; DCW mg/15 ml. [6, 9]: 4.1 mg/15 ml and 4.3 mg/15 ml; DCW [6, 10]: 0.22 g/L and 0.32 g/L; DCW mg/15 ml. [6, 10]: 3.3 mg/15 ml and 4.8 mg/15 ml; DCW [6, 11]: 0.24 g/L and 0.286 g/L; DCW mg/15 ml. [6, 11]: 4.3 mg/15 ml and 4.7 mg/15 ml; increased growth with glycerol ([6]; UTEX 2441, light, mixotrophic): 66%; DCW [7, 12]: 0.273 g/L and 0.206 g/L; DCW mg/15 ml. [7, 12]: 4.1 mg/15 ml and 3.1 mg/15 ml; DCW [7, 13]: 0.267 g/L and 0.20 g/L; DCW mg/15 ml. [7, 13]: 4.0 mg/15 ml and 3.0 mg/15 ml; DCW [7, 14]: 0.24 g/L and 0.293 g/L; DCW mg/15 ml. [7, 14]: 3.6 mg/15 ml and 4.4 mg/15 ml; difference in growth with or without glycerol ([7]; UTEX 572, light, mixotrophic): marginal difference
